Data as given in patent publication US20190148754A1, “USE OF IONIC LIQUIDS AS AN ADJUVANT IN ELECTROCHEMISTRY” (UNIVERSITE DE RENNES 1, priority 2016, published 2019).
Values after ≈ are worked out from the molar mass of the structure shown. Read-outs that look alike come from different tables or passages of the source.

Experiments:
[1] = Maximum solubility / solubilisation of organic compounds in ionic liquid/basic aqueous solution mixtures (flask method); conditions: for solubility: thermodynamic from solid; for natural solubility in a solution of pH=14: pH=14, without ionic liquid; for concentration of solution obtained: KOH 2M
Description: (§1) 100 mg of the targeted organic compound are introduced into a flask as well as the desired quantity of ionic liquid to be tested. A basic aqueous solution is added in portions of 0.1 mL until a solution is obtained. The maximum concentration is then determined in accordance with the following formula:
Cmax=[mcompound/Mcompound]/V
(§2) Cmax is the maximum concentration of given organic molecule in mol·L^−1, mcompound is the mass of the introduced organic molecule (in g), Mcompound is the molar mass of this organic molecule (in g·mol^−1) and V is the volume of added aqueous solution (in L).
(§3) The quinone is introduced into a volumetric flask (the quantity is dependent on the targeted concentration, generally between 0.1 and 0.5 M). The liquid is added (the quantity is dependent on the solubilising power of the ionic liquid, in stoichiometric quantity in relation to the quinone). An aqueous solution containing hydroxide ions at a concentration between 0.1 and 5 M is added until the flask is full.

physchem = conditions: aqueous with cosolvent or surfactant or cyclodextrin, thermodynamic from solid, Solubility in KOH 2 mol · L^−1 and ionic liquid: Anthraquinone
Description: as §1
Cmax=[mcompound/Mcompound]/V
as §2, §3

[2] = Cyclic voltammetry of electrolytic solutions; type: physicochemical; conditions: vitreous carbon electrode
Description: The action of the ionic liquids on the solubility of the organic molecules can be observed by a simple electrochemical analysis. The method used is voltammetry with linear variation of the potential. The result is the plotting of a curve i=f(E) of which the value of the oxidation or reduction current of the electroactive molecule is proportional to its concentration in solution. The electrochemical analyses are performed in an electrochemical cell of which the volume is 40 ml. The volume of the solutions introduced into the electrochemical cell is 10 ml.
In order to perform the analyses, three electrodes immersed in the solution are used: • Working electrode. The working electrode is the location of the studied electrochemical reaction. In this instance, an electrode which is made of vitreous carbon and has a surface of 3 mm diameter, or a nickel electrode of 5 mm diameter was used. The electrochemical reactions are often sensitive to the nature of the electrodes. For example, depending on their nature, some electrodes may passivate and others may not, compared to the same electrochemical system in solution. • Counter electrode. The counter electrode enables the passage of the current in the solution between itself and the working electrode. This electrode must be very stable (for example must not dissolve in the event of oxidation). […]

[3] = aqueous KOH solution with ionic liquid, aqueous with cosolvent or surfactant or cyclodextrin, Solubility in KOH 2 mol · L^−1 and ionic liquid: Anthraquinone, KOH 2 mol·L^−1, ionic liquid (I-a), (I-b) or (I-c) 0.5 mol·L^−1
[4] = aqueous KOH solution without ionic liquid, aqueous buffer, Solubility in KOH 2 mol · L^−1, aqueous KOH 2 mol·L^−1, without ionic liquid

In the case of `Nc1cccc2c1C(=O)c1ccccc1C2=O`, the solubility [1, 3] is reported as 100 mM (≈ 22.3 mg/mL), the solubility [1, 4] is reported as less than 100 mM and the “natural solubility in a solution of pH=14” value (from here on “natural solubility”) [1] is reported as “very weak”.

Work on `O=C1c2cccc(O)c2C(=O)c2cccc(O)c21` yielded a solubility [1, 3] of 500 mM (≈ 120 mg/mL) and a solubility [1, 4] of 100 mM (≈ 24 mg/mL).

With `O=C1c2ccccc2C(=O)c2c1ccc(O)c2O` [alizarin, Alizarin] the “concentration of solution obtained” value ([1]; 1,3-dimethylimidazolium methyl sulfate 1:1 with alizarin) was “greater than 0.5 M”, the “concentration of solution obtained” value ([1]; 1,3-dimethylimidazolium methyl sulfate less than 1:1 to alizarin, precipitate still visible) was less than 0.5 M and the “concentration of solution obtained” value ([1]; N-methylisoquinolinium methyl sulfate 1:1 with alizarin, precipitate still visible) was less than 0.5 M. For the same molecule, the “concentration in aqueous solution of KOH 2 M with ionic liquid” value ([1]; KOH 2 M, addition of 10% (vol.) ionic liquid) was 0.5 M, the “concentration of solution obtained” value ([1]; alizarin/1,3-dimethylimidazolium methyl sulfate/N-methylisoquinolinium methyl sulfate 1:0.5:0.5) was 0.8 M and the “concentration of solution obtained” value ([1]; either isolated ionic liquid, alizarin/ionic liquid 1:0.5, no solution obtained) was less than 0.5 M. For the same molecule, the solubility [1, 3] was 500 mM (≈ 120 mg/mL), the solubility ([1]; aqueous KOH solution with ionic liquid, aqueous with cosolvent or surfactant or cyclodextrin, concentration solubilised in aqueous solution of KOH 2 M with ionic liquid, KOH 2 M, 5% (vol.) ionic liquid) was 250 mM (≈ 60.1 mg/mL) and the solubility [1, 4] was 100 mM (≈ 24 mg/mL). It also gave a solubility ([1]; aqueous KOH solution without ionic liquid, aqueous buffer, soluble concentration in aqueous solution of KOH 2 M, KOH 2 M, without ionic liquid (saturation)) of 100 mM (≈ 24 mg/mL).

With `O=C1c2ccccc2C(=O)c2cc(S(=O)(=O)O)ccc21` the solubility [1, 3] was 100 mM (≈ 28.8 mg/mL), the solubility [1, 4] was less than 100 mM and the “natural solubility” value [1] was “very weak”.

In the case of `O=C1c2ccccc2C(=O)c2ccccc21`, the solubility (physchem) is reported as less than 100 mM and the “natural solubility” value is reported as “very weak”.

For `O=C1c2ccccc2C(=O)c2c1cc(S(=O)(=O)[O-])c(O)c2O.[Na+]` [Alizarin redS, Alizarin Red S], the “increase in the intensity of the oxidation peak and the reduction peak (factor)” value ([2]; 0.6 M ionic liquid vs none, 100 mV·s^−1 (FIG. 1)) was 15, the peak current intensity ([2]; 0.6 mol·L^−1 with 0.6 mol·L^−1 ionic liquid, 100 mV·s^−1) was “greater than 60 mA·cm^−2” and the solubility ([1]; aqueous KOH solution with ionic liquid, aqueous with cosolvent or surfactant or cyclodextrin, Solubility in KOH 2 mol · L^−1 and ionic liquid: Anthraquinone, KOH 2 mol·L^−1, ionic liquid (I-a), (I-b) or (I-c) 0.6 mol·L^−1) was 600 mM. For the same molecule, the solubility ([1]; aqueous KOH solution with ionic liquid, aqueous with cosolvent or surfactant or cyclodextrin, solubility in the presence of ionic liquid, KOH 2 mol·L^−1, 0.6 M ionic liquid) was 600 mM, the solubility [1, 4] was 200 mM and the solubility ([1]; aqueous KOH solution without ionic liquid, aqueous buffer, solubility in a solution of KOH 2 mol·L^−1, KOH 2 mol·L^−1, without ionic liquid) was roughly 200 mM.
